Values quoted from earlier work in patent US20250009670A1, “Stable Solid Oral Formulation Of Tafamidis Or Pharmaceutically Acceptable Salt Thereof” (Navinta, LLC, priority 2023, published 2025).

aqueous solubility: low aqueous solubility
SMILES: O=C(O)c1ccc2nc(-c3cc(Cl)cc(Cl)c3)oc2c1 [Tafamidis, 2-(3,5-dichlorophenyl)-1,3-benzoxazole-6-carboxylic acid]
